Ten molecules from PubChem BioAssay AID180 (DTP/NCI, 2004) can be followed below.

The assay relates to BDF1 mice, Adenocarcinoma 755 s.c., tumor weight T/C. Nature of the assay: NCI In Vivo Anticancer Drug Screen. Data for tumor model Adenocarcinoma 755 (subcutaneous) in B6D2F1 (BDF1) mice. To be noted: endpoint: mean tumor weight, higher = larger tumour. The method in brief:
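Compound activity was tested in mice carrying transplanted tumors. Survival or tumor size was measured, and each value is the treated-group measurement divided by that of the vehicle-treated control group (T/C).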

Setting [1] is: dose: 75.0 mg/kg/injection, schedule: Q01DX011 (ip), vehicle: carboxymethylcellulose (CMC).

Several values for one entry are separate records, joined by “and”; a condition that tells them apart may be missing. Identical values can stand only once.

For `O=C(Nc1ccc(C2=NCCCN2)cc1)c1ccc(C(=O)Nc2ccc(C3=NCCCN3)cc2)cc1`, the T/C reads like this: (dose: 0.4 mg/kg/injection, schedule: Q01DX011 (ip), vehicle: water) 103 % of control; (dose: 0.8 mg/kg/injection, schedule: Q01DX011 (ip), vehicle: water) 117 % of control; (dose: 1.6 mg/kg/injection, schedule: Q01DX011 (ip), vehicle: water) 94 % of control; (dose: 3.2 mg/kg/injection, schedule: Q01DX011 (ip), vehicle: water) 97 % of control.

`NC1=CC(=O)c2cccnc2C1=O`: the T/C is, setting by setting: (dose: 6.5 mg/kg/injection, schedule: Q01DX011 (ip), vehicle: water) 111 % of control; (dose: 10.0 mg/kg/injection, schedule: Q01DX011 (ip), vehicle: water) 87 % of control; (dose: 15.0 mg/kg/injection, schedule: Q01DX011 (ip), vehicle: water) 69 % of control.

As for `Brc1ncnc2nc[nH]c12`, the T/C (dose: 1.12 mg/kg/injection, schedule: Q01DX011 (ip), vehicle: carboxymethylcellulose (CMC)) was 99 % of control; the T/C (dose: 2.25 mg/kg/injection, schedule: Q01DX011 (ip), vehicle: carboxymethylcellulose (CMC)) is 100 % of control; the T/C (dose: 4.5 mg/kg/injection, schedule: Q01DX011 (ip), vehicle: carboxymethylcellulose (CMC)) was 43 % of control; the T/C (dose: 9.0 mg/kg/injection, schedule: Q01DX011 (ip), vehicle: carboxymethylcellulose (CMC)) is 50 % of control; the T/C (dose: 9.37 mg/kg/injection, schedule: Q01DX011 (ip), vehicle: carboxymethylcellulose (CMC)) was 10 % of control; the T/C (dose: 18.75 mg/kg/injection, schedule: Q01DX011 (ip), vehicle: carboxymethylcellulose (CMC)) is 10 % of control. Further, the T/C reads like this: (dose: 37.5 mg/kg/injection, schedule: Q01DX011 (ip), vehicle: carboxymethylcellulose (CMC)) 2 % of control; under setting [1], 1 % of control and 6 % of control; (dose: 150.0 mg/kg/injection, schedule: Q01DX011 (ip), vehicle: carboxymethylcellulose (CMC)) 6 % of control.

`O=S1(=O)CCCO1`: the T/C (dose: 80.0 mg/kg/injection, schedule: Q01DX011 (ip), vehicle: carboxymethylcellulose (CMC)) was 32 % of control and 33 % of control.

As to `CC(C)CN1CC(C)C(=O)N(c2ccccc2)C1=O` (stereo unspecified), the T/C (dose: 15.0 mg/kg/injection, schedule: Q01DX011 (ip), vehicle: methylcellulose (MC)) is 61 % of control; the T/C (dose: 31.0 mg/kg/injection, schedule: Q01DX011 (ip), vehicle: methylcellulose (MC)) was 66 % of control; the T/C (dose: 62.0 mg/kg/injection, schedule: Q01DX011 (ip), vehicle: methylcellulose (MC)) was 73 % of control; the T/C (dose: 125.0 mg/kg/injection, schedule: Q01DX011 (ip), vehicle: methylcellulose (MC)) was 75 % of control; the T/C (dose: 250.0 mg/kg/injection, schedule: Q01DX011 (ip), vehicle: methylcellulose (MC)) is 68 % of control.

With `OCCN1CCN(CC/C=C2/c3ccccc3Sc3ccc(Cl)cc32)CC1`, the T/C (dose: 2.5 mg/kg/injection, schedule: Q01DX011 (ip), vehicle: methylcellulose (MC)) was 90 % of control and 88 % of control; the T/C (dose: 5.0 mg/kg/injection, schedule: Q01DX011 (ip), vehicle: methylcellulose (MC)) is 40 % of control and 42 % of control; the T/C (dose: 10.0 mg/kg/injection, schedule: Q01DX011 (ip), vehicle: methylcellulose (MC)) was 32 % of control; the T/C (dose: 20.0 mg/kg/injection, schedule: Q01DX011 (ip), vehicle: methylcellulose (MC)) was 17 % of control.

As to `C[C@]12CCC(=O)C[C@H]1CC[C@@H]1[C@@H]2C(=O)C[C@@]2(C)[C@H]1CC[C@]2(C)O`, the T/C (dose: 10.0 mg/kg/injection, schedule: Q01DX011 (sc), vehicle: steriod suspending solution) is 85 % of control; the T/C (dose: 100.0 mg/kg/injection, schedule: Q01DX011 (sc), vehicle: steriod suspending solution) is 103 % of control; the T/C (dose: 200.0 mg/kg/injection, schedule: Q01DX011 (sc), vehicle: steriod suspending solution) was 105 % of control.

Take `CCCCCCCCOP(=O)(N1CC1)N1CC1`: the T/C by setting is: (dose: 0.1 mg/kg/injection, schedule: Q01DX011 (ip), vehicle: saline) 75 % of control and 79 % of control; (dose: 0.2 mg/kg/injection, schedule: Q01DX011 (ip), vehicle: saline) 65 % of control and 80 % of control; (dose: 1.0 mg/kg/injection, schedule: Q01DX011 (ip), vehicle: saline) 29 % of control; (dose: 2.0 mg/kg/injection, schedule: Q01DX011 (ip), vehicle: saline) 57 % of control and 66 % of control; (dose: 4.5 mg/kg/injection, schedule: Q01DX011 (ip), vehicle: saline) 56 % of control and 66 % of control.

`NS(=O)(=O)c1nc(=S)c2[nH]cnc2[nH]1`: the T/C (dose: 25.0 mg/kg/injection, schedule: Q01DX011 (ip), vehicle: carboxymethylcellulose (CMC)) was 108 % of control; the T/C under setting [1] was 117 % of control; the T/C (dose: 225.0 mg/kg/injection, schedule: Q01DX011 (ip), vehicle: carboxymethylcellulose (CMC)) was 79 % of control.

Regarding `Nc1ccc2cc(S(=O)(=O)O)cc(O)c2c1N=Nc1ccc(NC(=O)c2ccc(C(=O)Nc3ccc(N=Nc4c(N)ccc5cc(S(=O)(=O)O)cc(O)c45)c(S(=O)(=O)O)c3)cc2)cc1S(=O)(=O)O`, the T/C (dose: 3.0 mg/kg/injection, schedule: Q01DX011 (ip), vehicle: carboxymethylcellulose (CMC)) was 100 % of control; the T/C (dose: 7.0 mg/kg/injection, schedule: Q01DX011 (ip), vehicle: carboxymethylcellulose (CMC)) is 45 % of control; the T/C (dose: 15.0 mg/kg/injection, schedule: Q01DX011 (ip), vehicle: carboxymethylcellulose (CMC)) was 56 % of control; the T/C (dose: 30.0 mg/kg/injection, schedule: Q01DX011 (ip), vehicle: carboxymethylcellulose (CMC)) is 48 % of control.

By T/C is commonly meant the result in the treated group divided by that in the control group, in per cent.
